Source: patent US20230181536A1, “ANTICANCER COMBINATION THERAPY WITH N-(1-ACRYLOYL-AZETIDIN-3-YL)-2-((1H-INDAZOL-3-YL)AMINO)METHYL)-1H-IMIDAZOLE-5-CARBOXAMIDE INHIBITOR OF KRAS-G12C” (TAIHO PHARMACEUTICAL CO., LTD., priority 2020, published 2023)

Target: T1, KRAS G12C (Homo sapiens, UniProt P01116, G12C)
T1 construct: KRAS G12C (amino acid region: 1-169)
Test: Inhibitory activity on the KRAS G12C nucleotide (GDP-GTP) exchange reaction
Type: biochemical
Details: Bodipy FL GDP-bound KRAS G12C 25 nM; preincubation at 25° C. for 4 hours; SOS1 100 nM, GppNHp 1 μM, reaction for 30 minutes
In short: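 Bodipy FL-GDP-loaded KRAS G12C (aa 1-169, 25 nM) preincubated with compound 4 h at 25 °C in pH 7.5 Tris buffer, 5% DMSO; exchange started with SOS1 (aa 564-1049, 100 nM) and 1 μM GppNHp for 30 min. Fluorescence change (ex 485/em 520 nm) normalized to DMSO and no-GppNHp controls; IC50 calculated.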

T1 sequence (P01116 1-169 isoform P01116-2 G12C): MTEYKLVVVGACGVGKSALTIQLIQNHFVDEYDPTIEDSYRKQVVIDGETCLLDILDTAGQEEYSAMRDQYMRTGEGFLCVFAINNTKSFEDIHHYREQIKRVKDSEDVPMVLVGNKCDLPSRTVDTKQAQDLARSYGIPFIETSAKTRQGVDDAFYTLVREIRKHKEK

SMILES	IC50
C=CC(=O)N1CC(NC(=O)c2c(Cl)nc(CNc3n[nH]c4cc(Cl)c(C(C)(C)C)cc34)n2CC2CCCC2)C1 [Example 110, N-(1-acryloylazetidin-3-yl)-2-(((5-(tert-butyl)-6-chloro-1H-indazol-3-yl)amino)methyl)-4-chloro-1-(cyclopentylmethyl)-1H-imidazole-5-carboxamide]	9 nM
C=CC(=O)N1CC(NC(=O)c2c(Cl)nc(CNc3n[nH]c4cc(Cl)c(C(C)(C)C)cc34)n2C2CC=CC2)C1 [Example 98, N-(1-acryloylazetidin-3-yl)-2-(((5-(tert-butyl)-6-chloro-1H-indazol-3-yl)amino)methyl)-4-chloro-1-(cyclopent-3-en-1-yl)-1H-imidazole-5-carboxamide]	7 nM
C=CC(=O)N1CC(NC(=O)c2sc(CNc3n[nH]c4cc(Cl)c(C(C)(C)C)cc34)nc2C)C1 [Example 2, N-(1-acryloylazetidin-3-yl)-2-(((5-(tert-butyl)-6-chloro-1H-indazol-3-yl)amino)methyl)-4-methylthiazole-5-carboxamide]	365 nM
C=CC(=O)N1CC(NC(=O)c2c(C)nc(CNc3n[nH]c4cc(Cl)c(C(C)(C)C)cc34)n2CC(F)(F)F)C1 [Example 22, N-(1-acryloylazetidin-3-yl)-2-(((5-(tert-butyl)-6-chloro-1H-indazol-3-yl)amino)methyl)-4-methyl-1-(2,2,2-trifluoroethyl)-1H-imidazole-5-carboxamide]	55 nM
C=CC(=O)N1CC(NC(=O)c2c(Cl)nc(CNc3n[nH]c4cc(Cl)c(C(C)(C)C)cc34)n2[C@H]2CCOC2)C1 [Example 97, (S)-N-(1-acryloylazetidin-3-yl)-2-(((5-(tert-butyl)-6-chloro-1H-indazol-3-yl)amino)methyl)-4-chloro-1-(tetrahydrofuran-3-yl)-1H-imidazole-5-carboxamide]	4 nM
C=CC(=O)N(C)C1CN(C(=O)c2c(C)nc(CNc3n[nH]c4cc(Cl)c(C(C)(C)C)cc34)n2C)C1 [Example 51, N-(1-(2-(((5-(tert-butyl)-6-chloro-1H-indazol-3-yl)amino)methyl)-1,4-dimethyl-1H-imidazole-5-carbonyl)azetidin-3-yl)-N-methylacrylamide]	42 nM
C=CC(=O)N1CC(NC(=O)c2c(Cl)nc(CNc3n[nH]c4cc(Cl)c(C(C)(C)C)cc34)n2[C@@H]2C[C@@H](O)[C@@H](O)C2)C1 [Example 99]	7 nM
C=CC(=O)N1C[C@@H](CC#N)[C@@H](NC(=O)c2c(C)nc(CNc3n[nH]c4cc(Cl)c(C(C)(C)C)cc34)n2C)C1 [Example 65, N-((3R,4R)-1-acryloyl-4-(cyanomethyl)pyrrolidin-3-yl)-2-(((5-(tert-butyl)-6-chloro-1H-indazol-3-yl)amino)methyl)-1,4-dimethyl-1H-imidazole-5-carboxamide]	19 nM
C=CC(=O)N1C[C@H](NC(=O)c2c(C)nc(CNc3n[nH]c4cc(Cl)c(C(C)(C)C)cc34)n2C)[C@@H](F)C1 [Example 64, N-((3S,4S)-1-acryloyl-4-fluoropyrrolidin-3-yl)-2-(((5-(tert-butyl)-6-chloro-1H-indazol-3-yl)amino)methyl)-1,4-dimethyl-1H-imidazole-5-carboxamide]	13 nM

The remaining compounds from weak to strong by IC50, led by results:

IC50	SMILES
2350 nM	Cc1nc(CNc2n[nH]c3cc(Cl)c(C(C)(C)C)cc23)n(C(C)C)c1C(=O)NC1CN(C(=O)/C=C\Cl)C1 [Example 83, (Z)-2-(((5-(tert-butyl)-6-chloro-1H-indazol-3-yl)amino)methyl)-N-(1-(3-chloroacryloyl)azetidin-3-yl)-1-isopropyl-4-methyl-1H-imidazole-5-carboxamide]
1500 nM	C=CC(=O)N1C[C@H](NC(=O)c2c(C)nc(CNc3n[nH]c4cc(Cl)c(C(C)(C)C)cc34)n2C)[C@@H](C)C1 [Example 60, N-((3R,4S)-1-acryloyl-4-methylpyrrolidin-3-yl)-2-(((5-(tert-butyl)-6-chloro-1H-indazol-3-yl)amino)methyl)-1,4-dimethyl-1H-imidazole-5-carboxamide]
783 nM	C=CC(=O)N1CC(NC(=O)c2cnc(CNc3n[nH]c4cc(Cl)c(C(C)(C)C)cc34)s2)C1 [Example 8, N-(1-acryloylazetidin-3-yl)-2-(((5-(tert-butyl)-6-chloro-1H-indazol-3-yl)amino)methyl)thiazole-5-carboxamide]
210 nM	C=CC(=O)N1C[C@H](NC(=O)c2c(C)nc(CNc3n[nH]c4cc(Cl)c(C(C)(C)C)cc34)n2C)[C@H](OC)C1 [Example 61, N-((3S,4R)-1-acryloyl-4-methoxypyrrolidin-3-yl)-2-(((5-(tert-butyl)-6-chloro-1H-indazol-3-yl)amino)methyl)-1,4-dimethyl-1H-imidazole-5-carboxamide]
196 nM	COC/C=C/C(=O)N1CC(NC(=O)c2c(C)nc(CNc3n[nH]c4cc(Cl)c(C(C)(C)C)cc34)n2C(C)C)C1 [Example 85, (E)-2-(((5-(tert-butyl)-6-chloro-1H-indazol-3-yl)amino)methyl)-1-isopropyl-N-(1-(4-methoxybut-2-enoyl)azetidin-3-yl)-4-methyl-1H-imidazole-5-carboxamide]
79 nM	C=CC(=O)N1C[C@H](NC(=O)c2c(C(F)F)nc(CNc3n[nH]c4cc(Cl)c(C(C)(C)C)cc34)n2C)[C@@H](F)C1 [Example 70, N-((3S,4S)-1-acryloyl-4-fluoropyrrolidin-3-yl)-2-(((5-(tert-butyl)-6-chloro-1H-indazol-3-yl)amino)methyl)-4-(difluoromethyl)-1-methyl-1H-imidazole-5-carboxamide]
36 nM	C=CC(=O)N1C[C@@H](C)[C@@H](NC(=O)c2c(F)nc(CNc3n[nH]c4cc(Cl)c(C(C)(C)C)cc34)n2C)C1 [Example 74, N-((3R,4R)-1-acryloyl-4-methylpyrrolidin-3-yl)-2-(((5-(tert-butyl)-6-chloro-1H-indazol-3-yl)amino)methyl)-4-fluoro-1-methyl-1H-imidazole-5-carboxamide]
20 nM	C=CC(=O)N1C[C@@H](C)[C@@H](NC(=O)c2c(Cl)nc(CNc3n[nH]c4cc(Cl)c(C(C)(C)C)cc34)n2C)C1 [Example 78, N-((3R,4R)-1-acryloyl-4-methylpyrrolidin-3-yl)-2-(((5-(tert-butyl)-6-chloro-1H-indazol-3-yl)amino)methyl)-4-chloro-1-methyl-1H-imidazole-5-carboxamide]
16 nM	C=CC(=O)N1C[C@H](NC(=O)c2c(F)nc(CNc3n[nH]c4cc(Cl)c(C(C)(C)C)cc34)n2C)[C@@H](F)C1 [Example 75, N-((3S,4S)-1-acryloyl-4-fluoropyrrolidin-3-yl)-2-(((5-(tert-butyl)-6-chloro-1H-indazol-3-yl)amino)methyl)-4-fluoro-1-methyl-1H-imidazole-5-carboxamide]
8 nM	C=CC(=O)N1CC(NC(=O)c2c(Br)nc(CNc3n[nH]c4cc(Cl)c(C(C)(C)C)cc34)n2C)C1 [Example 27, N-(1-acryloylazetidin-3-yl)-4-bromo-2-(((5-(tert-butyl)-6-chloro-1H-indazol-3-yl)amino)methyl)-1-methyl-1H-imidazole-5-carboxamide]
4 nM	C=CC(=O)N1CC(NC(=O)c2c(Cl)nc(CNc3n[nH]c4cc(Cl)c(C(C)(C)C)cc34)n2[C@@H]2C[C@@H](C)N(CC(F)F)C2)C1 [Example 126, N-(1-acryloylazetidin-3-yl)-2-(((5-(tert-butyl)-6-chloro-1H-indazol-3-yl)amino)methyl)-4-chloro-1-((3R,5R)-1-(2,2-difluoroethyl)-5-methylpyrrolidin-3-yl)-1H-imidazole-5-carboxamide]
